Data published in patent US20260085067A1, “CYCLIC SULFONAMIDE RIBONUCLEOTIDE REDUCTASE (RNR) INHIBITORS AND USES THEREOF” (Boundless Bio, Inc., priority 2022, published 2026).

Key:
RNR (RNR1:RNR2 1:1) = target: T1, RNR (RNR1:RNR2 1:1) (Homo sapiens, UniProt P23921); assay: RNR enzyme activity, rapid-fire mass spectrometry (RF/MS) assay; type: biochemical; conditions: [RNR] 50 nM, 1:1 RNR1:RNR2; CDP 5 μM; ATP 1 mM; 37° C., 45 min; compounds screened up to 50 μM
T1 sequence (P23921 1-792): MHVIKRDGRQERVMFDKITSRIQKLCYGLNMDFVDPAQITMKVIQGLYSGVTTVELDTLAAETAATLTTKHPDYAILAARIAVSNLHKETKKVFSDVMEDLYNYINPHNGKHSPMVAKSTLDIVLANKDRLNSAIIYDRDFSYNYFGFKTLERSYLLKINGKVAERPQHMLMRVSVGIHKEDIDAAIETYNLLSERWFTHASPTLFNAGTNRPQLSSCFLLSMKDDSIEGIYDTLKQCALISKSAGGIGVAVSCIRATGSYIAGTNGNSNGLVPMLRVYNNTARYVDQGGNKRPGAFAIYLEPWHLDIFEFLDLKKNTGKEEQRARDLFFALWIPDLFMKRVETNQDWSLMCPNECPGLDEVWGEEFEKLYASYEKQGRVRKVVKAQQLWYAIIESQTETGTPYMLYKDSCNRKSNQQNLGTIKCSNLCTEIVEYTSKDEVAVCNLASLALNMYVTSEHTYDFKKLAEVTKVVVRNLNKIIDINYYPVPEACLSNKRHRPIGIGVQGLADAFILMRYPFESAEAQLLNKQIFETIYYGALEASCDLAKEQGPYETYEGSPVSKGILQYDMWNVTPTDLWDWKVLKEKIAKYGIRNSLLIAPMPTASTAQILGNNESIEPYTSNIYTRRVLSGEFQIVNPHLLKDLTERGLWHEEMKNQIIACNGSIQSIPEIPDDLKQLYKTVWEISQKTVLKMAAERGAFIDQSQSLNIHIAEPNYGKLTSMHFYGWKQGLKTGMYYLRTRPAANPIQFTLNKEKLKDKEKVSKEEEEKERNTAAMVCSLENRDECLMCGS
Protocol: A rapid-fire mass spectrometry (RF/MS) assay was used to assess RNR enzyme activity using a 384 well plate and a robotic platform.
The plate layout included two validated reference compounds (Triapine (3-AP) and Hydroxyurea (HU)): • A dose response in duplicate; top concentration: 5 μM (3-AP) and 250 μM (HU), semi-log dilutions. • Spike wells in triplicate randomly spotted at four concentrations: • 250 μM, 100 μM, 30 μM and 2 μM for HU • 5 μM, 2 μM, 0.6 μM and 0.04 μM for 3-AP
First, the multidrop pipes were saturated for 30 minutes with enzymatic solution. Then 30 μL of Stop solution was distributed in column 24. Next, 15 μL of enzyme was distributed in column 1 to 24. Next, a pre-incubation step of 15 minutes at room temperature occurred, followed by distribution of 15 μL of substrate solution (column 1 to 24). Next, the plate was incubated for 45 minutes at 37° C. 30 μL of Stop solution was then distributed to columns 1 to 23.
The final parameters for the enzyme reactions were: • Incubation: 37° C., 45 min • [CDP]: 5 μM; [ATP]: 1 mM; [NADPH]: No • [RNR]final: 50 nM with 1:1 (RNR1:RNR2) ratio • Final volume: 30 μL • Stop solution: 6% HCOOH in water

[1] = system: pCHK1 (S345) in Colo320 DM cells; assay: Alphalisa assay, detection of pCHK1 (S345) in Colo320 DM cells; type: cell-based, human; conditions: Homo sapiens, COLO 320DM, compound overnight (approximately 16 hours)
Protocol: Colo320 DM cells (ATCC #CCL-220, derived from human colorectal adenocarcinoma, Dukes' type C) were seeded on a […], cell culture treated assay plate at a density of 50,000 cells/well in 200 μL of RPMI-1640 media supplemented with 10% Fetal Bovine Serum and incubated at 37° C. overnight. The following day, test compound dilutions were added directly to the plated cells by a Tecan digital dispenser to a final DMSO concentration of <0.5%. and incubated at 37° C. overnight (approximately 16 hours). The following day all cell culture media was removed from the cells. 75 μL of 1×AlphaLisa lysis buffer was added to each well and plates were agitated on a shaker for 30 minutes at room temperature. The lysis of cells and detection of pCHK1 (S345) were performed with reagents contained within the AlphaLisa Sure Fire assay kit (Perkin Elmer #ALSU-PCHK1-A) according to the manufacturer's instructions. 10 μL of each lysate was then transferred to a white, 384-well assay plate (Perkin Elmer #6008280). 5 μL of Acceptor mix was then added to each well of lysate in the white, 384-well assay plate and incubated in the dark at room temperature for 60 minutes. 5 μL of Donor mix was then added to each well of the white, 384-well assay plate in subdued light and incubated at room temperature for 60 minutes. Plates were read on an Alpha Technology-compatible plate reader using standard AlphaLisa settings.

COC(=O)c1cc(Cl)cc2c1S(=O)(=O)N([C@H](c1n[nH]c(=O)o1)[C@H](C)c1c(F)ccc(C)c1C)CN2C [Example 19, methyl 6-chloro-2-((1S,2R)-2-(6-fluoro-2,3-dimethylphenyl)-1-(5-oxo-4,5-dihydro-1,3,4-oxadiazol-2-yl)propyl)-4-methyl-3,4-dihydro-2H-benzo[e][1,2,4]thiadiazine-8-carboxylate 1,1-dioxide] gave an IC50 (RNR (RNR1:RNR2 1:1)) of 20 to 100 nM and an IC50 [1] of 1000 to 5000 nM.
Molecule Cc1ccc(F)c([C@@H](C)[C@@H](c2n[nH]c(=O)o2)N2C3CCCN3c3cc(Cl)ccc3S2(=O)=O)c1C (stereo partly drawn) [Example 20, 5-((1S,2R)-1-(8-chloro-5,5-dioxido-1,2,3,3a-tetrahydro-4H-benzo[e]pyrrolo[2,1-c][1,2,4]thiadiazin-4-yl)-2-(6-fluoro-2,3-dimethylphenyl)propyl)-1,3,4-oxadiazol-2 (3H)-one] has an IC50 (RNR (RNR1:RNR2 1:1)) of less than 20 nM and an IC50 [1] of 1000 to 5000 nM.
In the case of Cc1ccc(F)c([C@@H](C)[C@@H](c2n[nH]c(=O)o2)N2CCNc3cc(Cl)ccc3S2(=O)=O)c1C [Example 21, 5-((1S,2R)-1-(7-chloro-1,1-dioxido-4,5-dihydrobenzo[f][1,2,5]thiadiazepin-2 (3H)-yl)-2-(6-fluoro-2,3-dimethylphenyl)propyl)-1,3,4-oxadiazol-2 (3H)-one], the IC50 (RNR (RNR1:RNR2 1:1)) is reported as 20 to 100 nM and the IC50 [1] is reported as 1000 to 5000 nM.
In the case of Cc1ccc(F)c([C@@H](C)[C@@H](c2n[nH]c(=O)o2)N2CN(C)c3cc(Cl)cc(C(N)=O)c3S2(=O)=O)c1C [Example 22, 6-chloro-2-((1S,2R)-2-(6-fluoro-2,3-dimethylphenyl)-1-(5-oxo-4,5-dihydro-1,3,4-oxadiazol-2-yl)propyl)-4-methyl-3,4-dihydro-2H-benzo[e][1,2,4]thiadiazine-8-carboxamide 1,1-dioxide], the IC50 (RNR (RNR1:RNR2 1:1)) is reported as less than 20 nM and the IC50 [1] is reported as no more than 1000 nM.
Molecule Cc1ccc(F)c([C@@H](C)[C@@H](c2n[nH]c(=O)o2)N2CCOc3cc(Cl)cc(C(N)=O)c3S2(=O)=O)c1C [Example 23, 7-chloro-2-((1S,2R)-2-(6-fluoro-2,3-dimethylphenyl)-1-(5-oxo-4,5-dihydro-1,3,4-oxadiazol-2-yl)propyl)-3,4-dihydro-2H-benzo[b][1,4,5]oxathiazepine-9-carboxamide 1,1-dioxide] has an IC50 (RNR (RNR1:RNR2 1:1)) of less than 20 nM and an IC50 [1] of 1000 to 5000 nM.
Cc1ccc(F)c([C@@H](C)[C@@H](c2n[nH]c(=O)o2)N2CCOc3cc(Cl)cc(C)c3S2(=O)=O)c1C [Example 24, 5-((1S,2R)-1-(7-chloro-9-methyl-1,1-dioxido-3,4-dihydro-2H-benzo[b][1,4,5]oxathiazepin-2-yl)-2-(6-fluoro-2,3-dimethylphenyl)propyl)-1,3,4-oxadiazol-2 (3H)-one] gave an IC50 (RNR (RNR1:RNR2 1:1)) of 100 to 1000 nM and an IC50 [1] greater than 50000 nM.
Work on CC(=O)c1c(Cl)ccc2c1OCCN([C@H](c1n[nH]c(=O)o1)[C@H](C)c1c(F)ccc(C)c1C)S2(=O)=O [Example 25, 5-((1S,2R)-1-(6-acetyl-7-chloro-1,1-dioxido-3,4-dihydro-2H-benzo[b][1,4,5]oxathiazepin-2-yl)-2-(6-fluoro-2,3-dimethylphenyl)propyl)-1,3,4-oxadiazol-2 (3H)-one] yielded an IC50 (RNR (RNR1:RNR2 1:1)) of less than 20 nM and an IC50 [1] of 1000 to 5000 nM.
Work on Cc1ccc(F)c([C@@H](C)[C@@H](c2n[nH]c(=O)o2)N2CN(C)c3cc(Cl)cc(C)c3S2(=O)=O)c1C [Example 26, 5-((1S,2R)-1-(6-chloro-4,8-dimethyl-1,1-dioxido-3,4-dihydro-2H-benzo[e][1,2,4]thiadiazin-2-yl)-2-(6-fluoro-2,3-dimethylphenyl)propyl)-1,3,4-oxadiazol-2 (3H)-one] yielded an IC50 (RNR (RNR1:RNR2 1:1)) of 20 to 100 nM and an IC50 [1] of 10000 to 50000 nM.
Molecule Cc1ccc(F)c([C@@H](C)[C@@H](c2n[nH]c(=O)o2)N2CCOc3cc(Cl)ncc3S2(=O)=O)c1C [Example 27, 5-((1S,2R)-1-(7-chloro-1,1-dioxido-3,4-dihydro-2H-pyrido[4,3-b][1,4,5]oxathiazepin-2-yl)-2-(6-fluoro-2,3-dimethylphenyl)propyl)-1,3,4-oxadiazol-2 (3H)-one] has an IC50 (RNR (RNR1:RNR2 1:1)) of 1000 to 10000 nM and an IC50 [1] of 10000 to 50000 nM.
With COCCCN1CN([C@H](c2n[nH]c(=O)o2)[C@H](C)c2c(F)ccc(C)c2C)S(=O)(=O)c2ccc(Cl)cc21 [Example 30, 5-((1S,2R)-1-(6-chloro-4-(3-methoxypropyl)-1,1-dioxido-3,4-dihydro-2H-benzo[e][1,2,4]thiadiazin-2-yl)-2-(6-fluoro-2,3-dimethylphenyl)propyl)-1,3,4-oxadiazol-2 (3H)-one] the IC50 (RNR (RNR1:RNR2 1:1)) was less than 20 nM and the IC50 [1] was no more than 1000 nM.
With Cc1ccc(F)c([C@@H](C)[C@@H](c2n[nH]c(=O)o2)N2CN(C)c3c(ccc(Cl)c3C)S2(=O)=O)c1C [Example 32, 5-((1S,2R)-1-(6-chloro-4,5-dimethyl-1,1-dioxido-3,4-dihydro-2H-benzo[e][1,2,4]thiadiazin-2-yl)-2-(6-fluoro-2,3-dimethylphenyl)propyl)-1,3,4-oxadiazol-2 (3H)-one] the IC50 (RNR (RNR1:RNR2 1:1)) was 20 to 100 nM and the IC50 [1] was 10000 to 50000 nM.
In the case of Cc1ccc(F)c([C@@H](C)[C@@H](c2n[nH]c(=O)o2)N2CN(C3CCOCC3)c3cc(Cl)ccc3S2(=O)=O)c1C [Example 33, 5-((1S,2R)-1-(6-chloro-1,1-dioxido-4-(tetrahydro-2H-pyran-4-yl)-3,4-dihydro-2H-benzo[e][1,2,4]thiadiazin-2-yl)-2-(6-fluoro-2,3-dimethylphenyl)propyl)-1,3,4-oxadiazol-2 (3H)-one], the IC50 (RNR (RNR1:RNR2 1:1)) is reported as less than 20 nM and the IC50 [1] is reported as no more than 1000 nM.
For Cc1ccc(F)c([C@@H](C)[C@@H](c2n[nH]c(=O)o2)N2CN(CCCN(C)C)c3cc(Cl)ccc3S2(=O)=O)c1C [Example 34, 5-((1S,2R)-1-(6-chloro-4-(3-(dimethylamino)propyl)-1,1-dioxido-3,4-dihydro-2H-benzo[e][1,2,4]thiadiazin-2-yl)-2-(6-fluoro-2,3-dimethylphenyl)propyl)-1,3,4-oxadiazol-2 (3H)-one], the IC50 (RNR (RNR1:RNR2 1:1)) was less than 20 nM and the IC50 [1] was 1000 to 5000 nM.
Cc1ccc(F)c([C@@H](C)[C@@H](c2n[nH]c(=O)o2)N2CN(C)C(=O)c3cc(Cl)ccc3S2(=O)=O)c1C [Example 35, 5-((1S,2R)-1-(7-chloro-4-methyl-1,1-dioxido-5-oxo-4,5-dihydrobenzo[f][1,2,4]thiadiazepin-2 (3H)-yl)-2-(6-fluoro-2,3-dimethylphenyl)propyl)-1,3,4-oxadiazol-2 (3H)-one] showed an IC50 (RNR (RNR1:RNR2 1:1)) of 20 to 100 nM and an IC50 [1] of 10000 to 50000 nM.
With Cc1ccc(F)c([C@@H](C)[C@@H](c2n[nH]c(=O)o2)N2CCOc3c(ccc(Cl)c3C)S2(=O)=O)c1C [Example 36, 5-((1S,2R)-1-(7-chloro-6-methyl-1,1-dioxido-3,4-dihydro-2H-benzo[b][1,4,5]oxathiazepin-2-yl)-2-(6-fluoro-2,3-dimethylphenyl)propyl)-1,3,4-oxadiazol-2 (3H)-one] the IC50 (RNR (RNR1:RNR2 1:1)) was less than 20 nM and the IC50 [1] was 1000 to 5000 nM.
Molecule Cc1ccc(F)c([C@@H](C)[C@@H](c2n[nH]c(=O)o2)N2CN(C)c3cc(Cl)cc(C(=O)N(C)C)c3S2(=O)=O)c1C [Example 37, 6-chloro-2-((1S,2R)-2-(6-fluoro-2,3-dimethylphenyl)-1-(5-oxo-4,5-dihydro-1,3,4-oxadiazol-2-yl)propyl)-N,N,4-trimethyl-3,4-dihydro-2H-benzo[e][1,2,4]thiadiazine-8-carboxamide 1,1-dioxide] has an IC50 (RNR (RNR1:RNR2 1:1)) of 1000 to 10000 nM and an IC50 [1] greater than 50000 nM.
